Measurements published in the supplement of paper PMC8149375.

Experiments:
Conditions in all cases: treatment: drug + dasatinib (fixed dose, not stated); 5 days
[1] = system: UO-31; assay: minimum viability across doses, drug + dasatinib, relative to DMSO (fraction); higher = less growth inhibition
Description: (§1)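 Primary HTS combination arm: 8 RCC cell lines treated with 8 doses (up to 10 uM) of each library drug plus a fixed dose of dasatinib (dose not stated) for 5 days; viability read by CellTiter-Glo and normalised to DMSO. GI50 was fitted with XLfit, AUC is the area under the dose-response curve, and minimum viability is the lowest fraction of DMSO viability across doses.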

[2] = system: 769-P; assay: as above
Description: as §1

[3] = system: CAKI-1; assay: as above
Description: as §1

[4] = system: SN12C; assay: as above
Description: as §1

[5] = system: A498; assay: as above
Description: as §1

[6] = system: ACHN; assay: as above
Description: as §1

[7] = system: TK-10; assay: as above
Description: as §1

[8] = system: 786-O; assay: as above
Description: as §1

[9] = system: UO-31; assay: AUC of dose-response viability curve, drug + dasatinib, normalised to DMSO (arbitrary (AUC of normalised viability)); higher = less growth inhibition
Description: as §1

[10] = system: 769-P; assay: as above
Description: as §1

[11] = system: CAKI-1; assay: as above
Description: as §1

[12] = system: SN12C; assay: as above
Description: as §1

[13] = system: A498; assay: as above
Description: as §1

[14] = system: ACHN; assay: as above
Description: as §1

[15] = system: TK-10; assay: as above
Description: as §1

[16] = system: 786-O; assay: as above
Description: as §1

[17] = system: UO-31; assay: GI50 of drug in presence of dasatinib; higher = less potent
Description: as §1

[18] = system: 769-P; assay: as above
Description: as §1

[19] = system: CAKI-1; assay: as above
Description: as §1

[20] = system: SN12C; assay: as above
Description: as §1

[21] = system: A498; assay: as above
Description: as §1

[22] = system: ACHN; assay: as above
Description: as §1

[23] = system: TK-10; assay: as above
Description: as §1

[24] = system: 786-O; assay: as above
Description: as §1

| SMILES | minimum viability across doses [1] | minimum viability across doses [2] | minimum viability across doses [3] | minimum viability across doses [4] | minimum viability across doses [5] | minimum viability across doses [6] | minimum viability across doses [7] | minimum viability across doses [8] | AUC of dose-response viability curve [9] | AUC of dose-response viability curve [10] | AUC of dose-response viability curve [11] | AUC of dose-response viability curve [12] | AUC of dose-response viability curve [13] | AUC of dose-response viability curve [14] | AUC of dose-response viability curve [15] | AUC of dose-response viability curve [16] | GI50 of drug [17] [nM] | GI50 of drug [18] [nM] | GI50 of drug [19] [nM] | GI50 of drug [20] [nM] | GI50 of drug [21] [nM] | GI50 of drug [22] [nM] | GI50 of drug [23] [nM] | GI50 of drug [24] [nM] |
| --- | --- | --- | --- | --- | --- | --- | --- | --- | --- | --- | --- | --- | --- | --- | --- | --- | --- | --- | --- | --- | --- | --- | --- | --- |
| CNC(=O)c1ccc(-c2cnc3ncc(Cc4ccc5ncccc5c4)n3n2)cc1F + Cc1nc(Nc2ncc(C(=O)Nc3c(C)cccc3Cl)s2)cc(N2CCN(CCO)CC2)n1 [dasatinib] | 0.991 | 0.457 | 0.571 | 0.659 | 0.918 | 0.497 | 0.656 | 0.576 | 4.11 | 2.42 | 2.26 | 2.42 | 3.63 | 2.05 | 2.44 | 2.19 | > 10000 | 7570 | > 10000 | > 10000 | > 10000 | 9070 | > 10000 | > 10000 |
| COc1cc2c(Oc3ccc(NC(=O)C4(C(=O)Nc5ccc(F)cc5)CC4)cc3F)ccnc2cc1OCCCN1CCOCC1 + Cc1nc(Nc2ncc(C(=O)Nc3c(C)cccc3Cl)s2)cc(N2CCN(CCO)CC2)n1 [dasatinib] | 0.011 | 0.00976 | 0.00437 | 0.0105 | 0.0345 | 0.00242 | 0.00508 | 0.00858 | 1.95 | 1.78 | 1.48 | 1.56 | 2.47 | 1.36 | 1.94 | 1.65 | 393 | 458 | 135 | 226 | 1430 | 112 | 558 | 496 |
| Nc1nc(Nc2ccc(S(N)(=O)=O)cc2)nn1C(=O)c1c(F)cccc1F + Cc1nc(Nc2ncc(C(=O)Nc3c(C)cccc3Cl)s2)cc(N2CCN(CCO)CC2)n1 [dasatinib] | 0.00972 | 0.0371 | 0.0394 | 0.142 | 0.269 | 0.00508 | 0.623 | 0.00366 | 3.26 | 2.24 | 1.99 | 2.48 | 2.82 | 1.56 | 2.57 | 1.7 | 4120 | 3160 | 1250 | 3690 | 4680 | 334 | > 10000 | 343 |
| O=C1NC(=O)/C(=C/c2ccc3nccc(-c4ccncc4)c3c2)S1 + Cc1nc(Nc2ncc(C(=O)Nc3c(C)cccc3Cl)s2)cc(N2CCN(CCO)CC2)n1 [dasatinib] | 0.0612 | 0.261 | 0.0502 | 0.243 | 0.138 | 0.108 | 0.318 | 0.00524 | 2.17 | 1.8 | 1.29 | 1.76 | 2.01 | 1.45 | 2.17 | 1.53 | 500 | 294 | 75 | 304 | 383 | 101 | 930 | 136 |
| COc1ncc(-c2ccc3nccc(-c4ccnnc4)c3c2)cc1NS(=O)(=O)c1ccc(F)cc1F + Cc1nc(Nc2ncc(C(=O)Nc3c(C)cccc3Cl)s2)cc(N2CCN(CCO)CC2)n1 [dasatinib] | 0.00632 | 0.0228 | 0.00939 | 0.104 | 0.158 | 0.0717 | 0.0271 | 0.00295 | 0.993 | 0.957 | 0.66 | 1.1 | 1.82 | 0.822 | 0.955 | 0.564 | 28.1 | 18.4 | 7.86 | 19 | 168 | 8.21 | 16.5 | 4.97 |
| CCn1c(-c2nonc2N)nc2c(C#CC(C)(C)O)ncc(OC[C@H]3CCCNC3)c21 + Cc1nc(Nc2ncc(C(=O)Nc3c(C)cccc3Cl)s2)cc(N2CCN(CCO)CC2)n1 [dasatinib] | 0.642 | 0.627 | 0.305 | 0.66 | 0.802 | 0.274 | 0.421 | 0.189 | 2.8 | 2.43 | 2.29 | 2.45 | 3.07 | 1.8 | 2.22 | 1.74 | > 10000 | > 10000 | 2670 | > 10000 | > 10000 | 456 | 1930 | 213 |
| CCc1cc(Nc2nccc(-c3c(-c4ccc(OC)c(C(=O)Nc5c(F)cccc5F)c4)nc4ccccn34)n2)c(OC)cc1N1CCC(N2CCN(S(C)(=O)=O)CC2)CC1 + Cc1nc(Nc2ncc(C(=O)Nc3c(C)cccc3Cl)s2)cc(N2CCN(CCO)CC2)n1 [dasatinib] | 0.86 | 0.445 | 0.406 | 0.644 | 0.849 | 0.488 | 0.678 | 0.641 | 3.28 | 2.19 | 2.19 | 2.4 | 3.42 | 1.97 | 2.59 | 2.71 | > 10000 | 3100 | 3060 | > 10000 | > 10000 | > 10000 | > 10000 | > 10000 |
| c1ccc2c(CCNc3ccc(Nc4ccncc4)cc3)c[nH]c2c1 + Cc1nc(Nc2ncc(C(=O)Nc3c(C)cccc3Cl)s2)cc(N2CCN(CCO)CC2)n1 [dasatinib] | 0.0188 | 0.0334 | 0.0392 | 0.00337 | 0.0451 | 0.00193 | 0.00918 | 0.00475 | 2.3 | 1.69 | 1.49 | 1.86 | 2.32 | 1.1 | 1.83 | 1.39 | 372 | 280 | 143 | 672 | 748 | 69.5 | 531 | > 10000 |
| Cn1cc(C2=C(c3cn(C4CCN(Cc5ccccn5)CC4)c4ccccc34)C(=O)NC2=O)c2ccccc21 + Cc1nc(Nc2ncc(C(=O)Nc3c(C)cccc3Cl)s2)cc(N2CCN(CCO)CC2)n1 [dasatinib] | 0.341 | 0.571 | 0.585 | 0.62 | 0.817 | 0.566 | 0.667 | 0.636 | 3.35 | 2.27 | 2.2 | 2.38 | 3.04 | 2.28 | 2.85 | 2.71 | 6320 | > 10000 | > 10000 | > 10000 | > 10000 | > 10000 | > 10000 | > 10000 |
| O=c1cc(-c2cccc3c2Sc2ccccc2S3)oc(N2CCOCC2)c1 + Cc1nc(Nc2ncc(C(=O)Nc3c(C)cccc3Cl)s2)cc(N2CCN(CCO)CC2)n1 [dasatinib] | 0.7 | 0.635 | 0.31 | 0.659 | 0.747 | 0.449 | 0.682 | 0.561 | 3.22 | 2.38 | 2.12 | 2.48 | 3.16 | 1.86 | 2.57 | 2.43 | > 10000 | > 10000 | 4310 | > 10000 | > 10000 | 20 | > 10000 | > 10000 |
| CCn1cc(-c2ccnc3[nH]c(-c4cccc(CN(C)C)c4)cc23)c(-c2ccc(NC(=O)N(C)C)cc2)n1 + Cc1nc(Nc2ncc(C(=O)Nc3c(C)cccc3Cl)s2)cc(N2CCN(CCO)CC2)n1 [dasatinib] | 0.0175 | 0.0742 | 0.0134 | 0.00824 | 0.131 | 0.00393 | 0.0524 | 0.0106 | 3.82 | 2.05 | 1.42 | 1.61 | 2.97 | 1.33 | 2.03 | 1.39 | 2870 | 785 | 96.9 | 128 | 2170 | 73.7 | 635 | 28.4 |
| COc1ccc(-c2ccc3c(N4CCOCC4)nc(N4C[C@@H](C)O[C@@H](C)C4)nc3n2)cc1CO + Cc1nc(Nc2ncc(C(=O)Nc3c(C)cccc3Cl)s2)cc(N2CCN(CCO)CC2)n1 [dasatinib] | 0.0195 | 0.136 | 0.0643 | 0.196 | 0.252 | 0.0839 | 0.168 | 0.176 | 2.56 | 1.75 | 1.56 | 2.03 | 2.77 | 1.33 | 1.87 | 1.93 | 1100 | 360 | 250 | 482 | 1830 | 50.7 | 379 | 478 |
| CNC(=O)c1c(F)cccc1Nc1nc(Nc2cc3c(cc2OC)CCN3C(=O)CN(C)C)nc2[nH]ccc12 + Cc1nc(Nc2ncc(C(=O)Nc3c(C)cccc3Cl)s2)cc(N2CCN(CCO)CC2)n1 [dasatinib] | 0.0173 | 0.0146 | 0.00312 | 0.004 | 0.015 | 0.0022 | 0.189 | 0.00553 | 3.45 | 1.96 | 1.87 | 2.11 | 3.85 | 1.62 | 2.17 | 1.84 | 2920 | 1300 | 919 | 1520 | 8320 | 434 | 1660 | 686 |
| Cn1cc(-c2ccc3nnc(C(F)(F)c4ccc5ncccc5c4)n3n2)cn1 + Cc1nc(Nc2ncc(C(=O)Nc3c(C)cccc3Cl)s2)cc(N2CCN(CCO)CC2)n1 [dasatinib] | 0.923 | 0.469 | 0.592 | 0.614 | 0.854 | 0.499 | 0.646 | 0.566 | 3.52 | 2.32 | 2.24 | 2.34 | 3.2 | 1.87 | 2.6 | 2.54 | > 10000 | 7400 | > 10000 | > 10000 | > 10000 | > 10000 | > 10000 | > 10000 |
